Test results reported in the supplement of paper PMC10307832.

What was measured:
Test in all cases: relative viability (nuclei count vs DMSO), 5 days (fraction); higher = more cells survive
[1] = compound: Cn1cc(-c2cnn3c(N)c(Br)c([C@@H]4CCCNC4)nc23)cn1 + CS(=O)(=O)N1CCN(Cc2cc3nc(-c4cccc5[nH]ncc45)nc(N4CCOCC4)c3s2)CC1 [Pictilisib] (partner 1 µM)
How it was run: (§1)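 Lung cancer cell lines in 1536-well plates got either a single drug or a fixed anchor-drug dose together with five library-drug doses (not always all listed) in √10 steps, by pin tool, on the day after seeding. Nuclei were counted after 5 days, and relative viability is the treated-to-vehicle ratio of nuclei counts. Values are medians of duplicate plates.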

[2] = compound: Cn1cc(-c2cnn3c(N)c(Br)c([C@@H]4CCCNC4)nc23)cn1 + Cc1nc(Nc2ncc(C(=O)Nc3c(C)cccc3Cl)s2)cc(N2CCN(CCO)CC2)n1 [Dasatinib] (partner 0.075 µM)
How it was run: as §1

[3] = compound: Cn1cc(-c2cnn3c(N)c(Br)c([C@@H]4CCCNC4)nc23)cn1 + C[C@@H](Oc1cc(-c2cnn(C3CCNCC3)c2)cnc1N)c1c(Cl)ccc(F)c1Cl [Crizotinib] (partner 1 µM)
How it was run: as §1

[4] = compound: Cn1cc(-c2cnn3c(N)c(Br)c([C@@H]4CCCNC4)nc23)cn1 + O=C(CCCCCCC(=O)Nc1ccccc1)NO [Vorinostat] (partner 1 µM)
How it was run: as §1

Cell Line	relative viability ([1]; first compound 0.05 µM)	relative viability ([1]; first compound 0.1581 µM)	relative viability ([1]; first compound 0.5 µM)	relative viability ([1]; first compound 1.581 µM)	relative viability ([1]; first compound 5 µM)	relative viability ([2]; first compound 0.05 µM)	relative viability ([2]; first compound 0.1581 µM)	relative viability ([2]; first compound 0.5 µM)	relative viability ([2]; first compound 1.581 µM)	relative viability ([2]; first compound 5 µM)	relative viability ([3]; first compound 0.05 µM)	relative viability ([3]; first compound 0.1581 µM)	relative viability ([3]; first compound 0.5 µM)	relative viability ([3]; first compound 1.581 µM)	relative viability ([3]; first compound 5 µM)	relative viability ([4]; first compound 0.05 µM)	relative viability ([4]; first compound 0.1581 µM)	relative viability ([4]; first compound 0.5 µM)	relative viability ([4]; first compound 1.581 µM)	relative viability ([4]; first compound 5 µM)
NCI-H3122	0.635	0.647	0.604	0.526	0.606	0.905	0.833	0.614	0.84	0.64	0.305	0.275	0.255	0.273	0.263	0.999	1.12	0.987	0.88	1.11
PC-3 [JPC-3]	0.692	0.746	0.744	0.667	0.747	1.02	1.09	0.826	0.775	1.01	1	1.01	1.02	0.835	1.12	0.656	0.747		0.834	0.566
PC-14	0.73	0.685	0.558	0.504	0.248	0.272	0.203	0.196	0.113	0.063	0.95	1.06	1.01	0.83	0.386	0.752	0.601	0.527	0.223	0.117
RERF-LC-KJ	0.593	0.53	0.384	0.359	0.346	0.936	0.806	0.813	0.572	0.618	0.828	0.958	0.775	0.788	0.8	0.636	0.808	0.802	0.599	0.6
SK-LU-1	0.569	0.424	0.458	0.365	0.278	0.173	0.132	0.148	0.164	0.118	0.877		0.483	0.33	0.264	0.92	0.631	0.407	0.369	0.281
SK-MES-1	0.333	0.395	0.336	0.288	0.216	0.359	0.308	0.236	0.231	0.118	1.07	1.11	0.918	0.934	0.366	1.22	0.877	0.788	0.38	0.216
SW 1573	0.48	0.572	0.502	0.461	0.499	0.604	0.631	0.455	0.247	0.453	0.794	1.07	0.9	0.747	0.73	0.818	0.967	0.682	0.582	0.721
UMC-11	0.926	0.782	0.709	0.397	0.431	0.536	0.424	0.32	0.312	0.341	0.736	0.504	0.623	0.392	0.262	0.331	0.313	0.345	0.334	0.291
